Key:
Assay in all cases: two-electrode voltage clamp, Xenopus oocytes
Type in all cases: cell-based
Settings in all cases: 10^-4 M odorant; Ca2+-free Ringer buffer pH 7.6; agonist
SfruOR23/ORco = biological target: T1, SfruOR23/ORco (Spodoptera frugiperda, UniProt A0A9R0EA99)
T1 construct: gene LOC118268273; full-length ORF, pT7TS cRNA, Xenopus laevis oocytes, with ORco; with Odorant receptor coreceptor
T1 sequence (A0A9R0EA99 1-429): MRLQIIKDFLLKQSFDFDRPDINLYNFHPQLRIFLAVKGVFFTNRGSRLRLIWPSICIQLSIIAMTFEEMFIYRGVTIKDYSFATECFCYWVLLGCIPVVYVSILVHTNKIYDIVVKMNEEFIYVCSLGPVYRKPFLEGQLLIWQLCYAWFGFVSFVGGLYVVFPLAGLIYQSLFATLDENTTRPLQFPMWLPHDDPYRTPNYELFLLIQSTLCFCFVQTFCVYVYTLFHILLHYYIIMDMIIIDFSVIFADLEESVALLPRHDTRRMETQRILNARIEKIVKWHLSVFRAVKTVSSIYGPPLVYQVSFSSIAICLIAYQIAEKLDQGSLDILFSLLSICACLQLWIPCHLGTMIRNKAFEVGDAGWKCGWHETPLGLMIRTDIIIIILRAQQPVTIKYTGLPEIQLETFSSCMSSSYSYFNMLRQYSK
T1 sequence (A0A9F1UC78 1-473 partner): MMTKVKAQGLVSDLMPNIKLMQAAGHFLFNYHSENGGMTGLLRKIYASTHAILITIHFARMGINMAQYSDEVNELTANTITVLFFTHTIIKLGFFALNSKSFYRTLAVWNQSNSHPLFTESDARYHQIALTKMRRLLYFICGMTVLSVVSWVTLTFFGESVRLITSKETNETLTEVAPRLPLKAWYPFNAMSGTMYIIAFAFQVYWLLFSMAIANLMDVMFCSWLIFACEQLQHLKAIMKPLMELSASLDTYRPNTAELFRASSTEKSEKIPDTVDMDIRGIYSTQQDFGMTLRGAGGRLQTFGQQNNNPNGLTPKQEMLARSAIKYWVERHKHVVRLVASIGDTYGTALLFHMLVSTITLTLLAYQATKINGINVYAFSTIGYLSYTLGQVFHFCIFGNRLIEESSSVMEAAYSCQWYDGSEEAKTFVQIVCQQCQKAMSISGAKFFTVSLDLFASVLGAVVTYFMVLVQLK

SfruOR17 = biological target: T2, SfruOR17 (Spodoptera frugiperda, UniProt A0A9R0D2T2)
T2 construct: gene LOC118267896; full-length ORF, pT7TS cRNA, Xenopus laevis oocytes; with Odorant receptor coreceptor
T2 sequence (A0A9R0D2T2 1-395): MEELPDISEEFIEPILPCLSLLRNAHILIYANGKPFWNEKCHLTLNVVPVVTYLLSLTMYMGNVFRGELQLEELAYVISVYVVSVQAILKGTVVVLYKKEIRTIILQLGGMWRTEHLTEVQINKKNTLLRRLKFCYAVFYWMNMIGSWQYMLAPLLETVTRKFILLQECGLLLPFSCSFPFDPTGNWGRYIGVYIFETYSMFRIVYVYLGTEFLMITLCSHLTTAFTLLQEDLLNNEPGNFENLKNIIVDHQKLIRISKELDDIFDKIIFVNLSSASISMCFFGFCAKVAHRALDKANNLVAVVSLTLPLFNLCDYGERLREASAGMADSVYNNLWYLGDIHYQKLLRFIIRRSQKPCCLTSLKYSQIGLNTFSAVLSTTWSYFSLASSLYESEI
T2 sequence (A0A9F1UC78 1-473 partner): T1 sequence (A0A9F1UC78 1-473 partner)

SfruOR5 = biological target: T3, SfruOR5 (Spodoptera frugiperda, UniProt A0A9R0ELQ8)
T3 construct: gene LOC118270580; full-length ORF, pT7TS cRNA, Xenopus laevis oocytes; with Odorant receptor coreceptor
T3 sequence (A0A9R0ELQ8 1-379): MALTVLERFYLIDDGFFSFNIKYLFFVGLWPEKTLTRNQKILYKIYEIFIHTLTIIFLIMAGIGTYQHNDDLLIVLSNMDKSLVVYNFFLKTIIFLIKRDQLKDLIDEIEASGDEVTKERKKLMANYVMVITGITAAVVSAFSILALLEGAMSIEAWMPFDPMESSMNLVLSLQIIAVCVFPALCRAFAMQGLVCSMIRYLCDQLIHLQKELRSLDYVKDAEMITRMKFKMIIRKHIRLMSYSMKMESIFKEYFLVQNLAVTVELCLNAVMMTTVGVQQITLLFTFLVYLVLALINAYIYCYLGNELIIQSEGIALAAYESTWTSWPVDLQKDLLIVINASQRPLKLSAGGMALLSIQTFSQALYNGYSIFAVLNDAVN
T3 sequence (A0A9F1UC78 1-473 partner): T1 sequence (A0A9F1UC78 1-473 partner)

SfruOR9 = biological target: T4, SfruOR9 (Spodoptera frugiperda, UniProt A0A9R0EEX7)
T4 construct: gene LOC118261888; full-length ORF, pT7TS cRNA, Xenopus laevis oocytes; with Odorant receptor coreceptor
T4 sequence (A0A9R0EEX7 1-400): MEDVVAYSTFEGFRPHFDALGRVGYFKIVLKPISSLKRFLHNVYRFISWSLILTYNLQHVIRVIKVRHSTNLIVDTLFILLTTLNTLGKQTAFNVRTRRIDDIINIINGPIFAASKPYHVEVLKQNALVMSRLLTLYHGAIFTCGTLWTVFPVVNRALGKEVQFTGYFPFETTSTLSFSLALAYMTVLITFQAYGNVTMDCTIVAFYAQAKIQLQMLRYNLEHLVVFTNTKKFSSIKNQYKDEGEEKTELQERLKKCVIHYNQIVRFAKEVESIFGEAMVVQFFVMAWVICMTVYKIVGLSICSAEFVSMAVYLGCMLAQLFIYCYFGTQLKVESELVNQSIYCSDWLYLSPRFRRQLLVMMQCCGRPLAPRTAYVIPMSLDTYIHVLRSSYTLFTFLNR
T4 sequence (A0A9F1UC78 1-473 partner): T1 sequence (A0A9F1UC78 1-473 partner)

SMILES: CC/C=C\CCOC(C)=O [(Z)-3-hexenyl-acetate]
- inward current response (SfruOR23/ORco): with SfruOR23/ORco showing the highest response
- inward current response (SfruOR17): SfruOR5, SfruOR9, SfruOR17, SfruOR23, and SfruOR25 responded to the oviposition stimulant (Z)-3-hexenyl-acetate
- inward current response (SfruOR5): SfruOR5, SfruOR9, SfruOR17, SfruOR23, and SfruOR25 responded to the oviposition stimulant (Z)-3-hexenyl-acetate
- inward current response (SfruOR9): SfruOR5, SfruOR9, SfruOR17, SfruOR23, and SfruOR25 responded to the oviposition stimulant (Z)-3-hexenyl-acetate

From article PMC10280969, “A green leaf volatile, (Z)-3-hexenyl-acetate, mediates differential oviposition by Spodoptera frugiperda on maize and rice” (BMC Biology, 2023)
